# Results as given in patent publication US5462933A, “Modified bile acid conjugates, and their use as pharmaceuticals” (Hoechst Aktiengesellschaft, priority 1989, dated 1995).
# Key:
# 67,000 (albumin) = target: T1, 67,000 (albumin) (Rattus norvegicus, UniProt P02770); test: Photoaffinity labeling of bile acid-binding proteins in hepatocytes in the presence of competitor; details: decrease in labeling relative to control
# T1 construct: freshly isolated hepatocytes from rat liver; endogenous in cells; host or cells: freshly isolated rat hepatocytes
# T1 sequence (P02770 25-608): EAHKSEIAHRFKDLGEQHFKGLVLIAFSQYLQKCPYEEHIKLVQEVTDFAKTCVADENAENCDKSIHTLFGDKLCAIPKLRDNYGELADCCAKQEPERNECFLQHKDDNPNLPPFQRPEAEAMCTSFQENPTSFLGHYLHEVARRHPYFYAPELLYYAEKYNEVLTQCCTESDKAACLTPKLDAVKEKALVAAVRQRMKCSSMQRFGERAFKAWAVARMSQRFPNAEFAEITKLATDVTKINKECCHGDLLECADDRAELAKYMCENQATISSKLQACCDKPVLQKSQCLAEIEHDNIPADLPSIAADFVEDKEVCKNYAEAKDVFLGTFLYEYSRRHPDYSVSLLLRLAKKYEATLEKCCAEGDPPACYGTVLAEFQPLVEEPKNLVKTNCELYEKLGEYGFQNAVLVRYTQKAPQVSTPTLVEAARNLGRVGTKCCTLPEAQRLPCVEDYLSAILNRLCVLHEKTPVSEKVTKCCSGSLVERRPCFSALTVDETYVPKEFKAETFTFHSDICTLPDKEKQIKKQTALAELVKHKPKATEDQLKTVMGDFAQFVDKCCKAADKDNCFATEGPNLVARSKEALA
# Source text: (§1) The molecules of these physiologically relevant binding proteins for bile acids were identified and characterized by the method of photoaffinity labeling. The principle of this method consists in binding a photoreactive radioactively labeled bile acid derivative to the physiological binding protein analogously to the natural bile acids. By irradiation with UV light, highly reactive chemical intermediates such as carbenes, nitrenes or radicals are generated in this derivative which, owing to their high reactivity, immediately react with the binding proteins by addition to double bonds or insertion in single bonds and bind covalently to these. By means of this covalent linkage of the radioactive bile acid derivative with the binding protein, the binding proteins are then also radioactively labeled and can be identified by a separation of the various proteins of a liver cell, for example by electrophoresis, and their molecular weight determined.
# If such a photoaffinity labeling is carried out in the presence of a substance X' which also binds to the bile acid-binding proteins, then X' will compete with the radioactive bile acid derivative for binding to the bile acid-binding proteins; the radioactive labeling of the corresponding binding proteins will thus be lower in the presence of X'. […]
# [1] = test system: 48,000 (membrane transport protein); test: as above; parameters: species or system rat
# Source text: as §1
# (§2) If such a photoaffinity labeling is carried out in the presence of a substance X' which also binds to the bile acid-binding proteins, then X' will compete with the radioactive bile acid derivative for binding to the bile acid-binding proteins; the radioactive labeling of the corresponding binding proteins will thus be lower in the presence of X'.
# (§3) 3.6×10^6 freshly isolated hepatocytes from rat liver (about 3 mg of protein) in 1.5 ml of buffer I (118 mM NaCl, 4.74 mM KCl, 0.59 mM KH2 PO4, 0.59 mM Na2 HPO4 ×2 H2 O, 1.185 mM MgCl2 ×6 H2 O, 24.87 mM NaHCO3, 1.25 mM CaCl2, 5.5 mM D-glucose, pH 7.35, buffer aerated with carbogen (95% O2 /5% CO2) for 1 h) were incubated at 37° C. […] in the dark with 1.25 μM (25 μCi) of (7,7-azo-3α-12α-dihydroxy-5β[3-^3 H]cholan-24-oyl)-2-aminoethanesulfonic acid in the absence or in the presence of 250 μM "Example 3" and then irradiated at […] with 16 RPR 3500 Å-lamps for 5 min in a Rayonet RPR-100 photoreactor. The cell suspension was then diluted with 10 ml of ice-cold buffer I and the cells sedimented by centrifuging at 1000×g for 3 minutes. The cells were resuspended again in 10 ml of buffer I and again sedimented by centrifugation. The precipitate was taken up in 600 μl of tris/HCl buffer (pH 6.8)/2% sodium dodecylsulfate (SDS)/5% 2-mercaptoethanol/10% glycerol/0.001% Bromophenol blue, heated to 90° C. for 5 min and centrifuged at 40,000×g for 20 min. The clear supernatant containing the solubilized proteins was used subsequently. In each case 100 μl (500 μg of protein) were applied to discontinuous SDS slab gels (200×170×2.7 mm, total acrylamide concentration 12%) and the proteins were separated by electrophoresis at a voltage of 50 V. After the electrophoresis, the gels were fixed in 12.5% strength trichloroacetic acid solution and stained using 0.08% Serva blue R 250 solution in 25% ethanol/8% acetic acid/67% water. After destaining, the gels were equilibrated in 1M sodium salicylate solution in 70% methanol for 20 min and then dried. The distribution of the radioactively labeled proteins was determined by the fluorographic method by placing the dried gels on Kodak-X-Omat AR X-ray films and exposing at -80° C. for 14 d. The blackened films were measured by densitometry. The decrease in the labeling of the various bile acid-binding proteins owing to the presence of "Example 3" during the photoaffinity labeling is given in % relative to the control.
# [2] = test system: 54,000 (membrane transport protein); test: as above; parameters: species or system rat
# Source text: as §1, §2, §3
# [3] = test system: 36,000 (transport protein in the cytoplasm); test: as above; parameters: species or system rat
# Source text: as §1, §2, §3
# [4] = test system: 43,000 (cytoskeletal protein); test: as above; parameters: species or system rat
# Source text: as §1, §2, §3
# [5] = test system: 33,000 (binding protein in mitochondria); test: as above; parameters: species or system rat
# Source text: as §1, §2, §3
# [6] = test system: freshly isolated hepatocytes; test: Metabolism by freshly isolated hepatocytes; format: in vitro ADME, rat; parameters: Distribution of the radioactivity: Metabolite 1 Rf = 0.32 / Distribution of the radioactivity: Metabolite 3 Rf = 0.21 (not identified): concentration or dose not given beside the values
# Method: Freshly isolated hepatocytes (1.8×10^6) in 750 μl of buffer I were incubated at 37° C. with 5.5 μCi of "Example 5". After 10, 20, 30, 40 and 60 min, 100 μl of the cell suspension were removed in each case, diluted with 10 ml of ice-cold buffer I and centrifuged at 1000×g for 5 min. The cell precipitate was treated twice with 100 μl of chloroform/methanol solution (1/1, v/v) each time to extract the bile acid. The organic extracts were evaporated in a stream of N2, and the residues were each taken up in 20 μl of dioxane and applied to HPTLC thin layer plates. After developing the chromatogram using n-butanol/acetic acid/water (9:1:2, v/v/v) as the eluent, the plate was dried, sprayed with 1M sodium salicylate solution in methanol and, after drying, placed on a Kodak-X-Omat AR X-ray film. After exposure at -80° C. for 1 week, the film was developed and the distribution of the radioactivity was determined by densitometry. The distribution of the radioactivity in the individual metabolites is given in %.
# liver cell proteins = test: Alkylation of liver cell proteins in freshly isolated hepatocytes; format: cell-based, rat
# Method: Freshly isolated hepatocytes (2×10^6) in 2 ml of buffer I were incubated at 37° C. with 30 μCi of "Example 5". After 10, 30, 40 and 60 min, in each case 500 μl of cell suspension (500 μg of protein) were removed and diluted with 10 ml of ice-cold buffer I. After centrifuging at 1000×g for 3 minutes, the precipitate was resuspended in 10 ml of buffer I and the suspension was centrifuged again. The cell precipitates were each dissolved in 100 μl of 62.5 mM tris/HCl buffer (pH 6.8)/2% SDS/5% 2-mercaptoethanol/10% glycerol/0.001% Bromophenol blue, centrifuged at 48,000×g for 30 min and the clear supernatants were applied to discontinuous SDS slab gels (200×170×2.7 mm). After the electrophoretic separation, the gels were fixed and stained. To determine the distribution of the radioactivity, the individual gel tracks were divided into 2 mm sections, the proteins were digested with Biolute S by incubation with 0.5 ml, and after addition of 5 ml of Quickszint 501 scintillator, the samples were measured in a liquid scintillation counter.
smiles,measurement,setting,value
C[C@H](CCC(=O)NCCS(=O)(=O)O)[C@H]1CC[C@H]2[C@@H]3CC[C@@H]4C[C@H](OC(=O)CCCc5ccc(N(CCCl)CCCl)cc5)CC[C@]4(C)[C@H]3CC(=O)[C@]12C [Example 3],"% Inhibition of bile acid-binding proteins by 250 μM ""Example 3""","67,000 (albumin)",90.5%
same,"% Inhibition of bile acid-binding proteins by 250 μM ""Example 3""",[1],88.8%
same,"% Inhibition of bile acid-binding proteins by 250 μM ""Example 3""",[2],89.6%
same,"% Inhibition of bile acid-binding proteins by 250 μM ""Example 3""",[3],98.1%
same,"% Inhibition of bile acid-binding proteins by 250 μM ""Example 3""",[4],88.1%
same,"% Inhibition of bile acid-binding proteins by 250 μM ""Example 3""",[5],93.2%
[3H]C1(O)C[C@H]2[C@@H](CC[C@@H]3C[C@H](OC(=O)CCCc4ccc(N(CCCl)CCCl)cc4)CC[C@@]32C)[C@@H]2CC[C@H]([C@H](C)CCC(=O)NCCS(=O)(=O)O)[C@]21C (stereo partly shown) [Example 5],"Distribution of the radioactivity: ""Example 5"" Rf = 0.49",[6]; incubation 10 min,31.34%
same,Distribution of the radioactivity: Metabolite 1 Rf = 0.32,[6]; incubation 10 min,33.79%
same,Distribution of the radioactivity: Metabolite 2 Rf = 0.36,[6]; incubation 10 min,38.03%
same,Distribution of the radioactivity: Metabolite 3 Rf = 0.21 (not identified),[6]; incubation 10 min,5.62%
same,"Distribution of the radioactivity: ""Example 5"" Rf = 0.49",[6]; incubation 20 min,26.51%
same,Distribution of the radioactivity: Metabolite 1 Rf = 0.32,[6]; incubation 20 min,29.49%
same,Distribution of the radioactivity: Metabolite 2 Rf = 0.36,[6]; incubation 20 min,32.25%
same,Distribution of the radioactivity: Metabolite 3 Rf = 0.21 (not identified),[6]; incubation 20 min,11.74%
same,"Distribution of the radioactivity: ""Example 5"" Rf = 0.49",[6]; incubation 30 min,23.76%
same,Distribution of the radioactivity: Metabolite 1 Rf = 0.32,[6]; incubation 30 min,29.88%
same,Distribution of the radioactivity: Metabolite 2 Rf = 0.36,[6]; incubation 30 min,34.18%
same,Distribution of the radioactivity: Metabolite 3 Rf = 0.21 (not identified),[6]; incubation 30 min,12.16%
same,"Distribution of the radioactivity: ""Example 5"" Rf = 0.49",[6]; incubation 40 min,13.78%
same,Distribution of the radioactivity: Metabolite 1 Rf = 0.32,[6]; incubation 40 min,33.52%
same,Distribution of the radioactivity: Metabolite 2 Rf = 0.36,[6]; incubation 40 min,40.93%
same,Distribution of the radioactivity: Metabolite 3 Rf = 0.21 (not identified),[6]; incubation 40 min,11.75%
same,"Distribution of the radioactivity: ""Example 5"" Rf = 0.49",[6]; incubation 60 min,11.00%
same,Distribution of the radioactivity: Metabolite 1 Rf = 0.32,[6]; incubation 60 min,33.7%
same,Distribution of the radioactivity: Metabolite 2 Rf = 0.36,[6]; incubation 60 min,45.7%
same,Distribution of the radioactivity: Metabolite 3 Rf = 0.21 (not identified),[6]; incubation 60 min,10.3%
same,Absorption into the cell interior by the liver cells,[6]; result in words,is absorbed into the cell interior by the liver cells
same,Hydrolytic cleavage into free chlorambucil and bile acid,[6]; result in words,rapidly cleaved hydrolytically
same,Radioactive labeling of liver cell proteins,"liver cell proteins; in membranes, cytoplasm and cell organelles, result in words",leads to a radioactive labeling of liver cell proteins
same,Radioactivity in labeled liver proteins,liver cell proteins; incubation 0 min,< 30 cpm
same,Radioactivity in labeled liver proteins,"liver cell proteins; incubation 10 min, 48 kDa",408 cpm
same,Radioactivity in labeled liver proteins,"liver cell proteins; incubation 10 min, 67 kDa",102 cpm
same,Radioactivity in labeled liver proteins,"liver cell proteins; incubation 30 min, 28 kDa",2190 cpm
same,Radioactivity in labeled liver proteins,"liver cell proteins; incubation 30 min, 33 kDa",1116 cpm
same,Radioactivity in labeled liver proteins,"liver cell proteins; incubation 30 min, 42 kDa",1711 cpm
same,Radioactivity in labeled liver proteins,"liver cell proteins; incubation 30 min, 48 kDa",1375 cpm
same,Radioactivity in labeled liver proteins,"liver cell proteins; incubation 30 min, 54 kDa",1811 cpm
same,Radioactivity in labeled liver proteins,"liver cell proteins; incubation 30 min, 122 kDa",1064 cpm
same,Radioactivity in labeled liver proteins,"liver cell proteins; incubation 40 min, 28 kDa",2682 cpm
same,Radioactivity in labeled liver proteins,"liver cell proteins; incubation 40 min, 33 kDa",1474 cpm
same,Radioactivity in labeled liver proteins,"liver cell proteins; incubation 40 min, 42 kDa",2650 cpm
same,Radioactivity in labeled liver proteins,"liver cell proteins; incubation 40 min, 48 kDa",2420 cpm
same,Radioactivity in labeled liver proteins,"liver cell proteins; incubation 40 min, 54 kDa",2385 cpm
same,Radioactivity in labeled liver proteins,"liver cell proteins; incubation 40 min, 122 kDa",1549 cpm
same,Radioactivity in labeled liver proteins,"liver cell proteins; incubation 60 min, 28 kDa",2163 cpm
same,Radioactivity in labeled liver proteins,"liver cell proteins; incubation 60 min, 42 kDa",1725 cpm
same,Radioactivity in labeled liver proteins,"liver cell proteins; incubation 60 min, 48 kDa",2074 cpm
same,Radioactivity in labeled liver proteins,"liver cell proteins; incubation 60 min, 54 kDa",1949 cpm
same,Radioactivity in labeled liver proteins,"liver cell proteins; incubation 60 min, 122 kDa",997 cpm
